# “Also recorded” adds a separate entry of the source.
# What was measured:
# [1] = system: BMDM; assay: IL-6 ELISA on supernatant of LPS-stimulated BMDM; type: cell-based, mouse; conditions: 1 μg/mL LPS, 6 hours; 20 μM JSH-23, 20 μM PD98059, 1 μM SP600125, 5 μM 4μ8C
# Method: (§1) Tissue culture conditions and Reagents. HEK293 cells, primary lung fibroblasts and BMDM were isolated and maintained as described (41-43). Cells were treated with LPS (Sigma, L4391), 4μ8C (Tocris, 4479), tunicamycin (Tocris, 3516), PD98059 (Medchem Express HY-12028), JSH-23 (Medchem Express, Hy-13982), SP600125 (Medchem Express, HY-12041), cycloheximide (Tocris, 0970), lactacystin (Cayman Chemical, 70980), chloroquine (Fisher, ICN19391925), and STF 083010 (Medchem Express, HY-15845) as described in the text.
# (§2) ELISA. ELISA for IL-6 and TNFα were performed as previously described (Remick et al., 2002). Antibodies used were: anti-mouse IL-6 MP5-20F3 (Biolegend, 504501) 0.5 μg/mL; biotin anti-mouse IL-6 MP5-32C11 (Biolegend, 504601) 1 μg/mL; anti-mouse TNFα (R&D systems, AF-410-NA) 0.5 μg/mL; biotin anti-mouse TNFα (R&D systems, BAF410) 0.25 μg/mL.
# Tissue culture conditions and Reagents. HEK293 mTLR4/MD2/CD14 (Invivogen, 293-mtlr4md2cd14), primary lung fibroblasts, and BMDM were isolated and maintained as described (Zhang et al., 2008; Seluanov et al., 2010). Cells and animals were treated with LPS (Sigma, L4391), 4μ8C (Tocris, 4479), APY-29 (Medchem Express HY-17537), PD98059 (Medchem Express HY-12028), JSH-23 (Medchem Express, HY-13982), SP600125 (Medchem Express, HY-12041), STF 083010 (Medchem Express, HY-15845), Fluvoxamine (Medchem Express, HY-B0103A), and Ceftriaxone (Hospira, NDC: 0409-7337-01), as described in the text.
# as §2, with “TNF-α” for “TNFα”
# [2] = target: T1, IRE1 endonuclease activity (Mus musculus, UniProt Q9EQY0); assay: XBP1 splicing ratio by qPCR in BMDM; type: cell-based; conditions: WT and S1R KO BMDM, 100 ng/mL LPS + 5 μM 4μ8C, 6 hours
# T1 construct: We prepared bone marrow derived macrophages (BMDM) from WT and S1R KO mice; endogenous in cells; host or cells: primary mouse bone marrow derived macrophages (WT and S1R KO, C57BL/6J background)
# T1 sequence (Q9EQY0 21-977): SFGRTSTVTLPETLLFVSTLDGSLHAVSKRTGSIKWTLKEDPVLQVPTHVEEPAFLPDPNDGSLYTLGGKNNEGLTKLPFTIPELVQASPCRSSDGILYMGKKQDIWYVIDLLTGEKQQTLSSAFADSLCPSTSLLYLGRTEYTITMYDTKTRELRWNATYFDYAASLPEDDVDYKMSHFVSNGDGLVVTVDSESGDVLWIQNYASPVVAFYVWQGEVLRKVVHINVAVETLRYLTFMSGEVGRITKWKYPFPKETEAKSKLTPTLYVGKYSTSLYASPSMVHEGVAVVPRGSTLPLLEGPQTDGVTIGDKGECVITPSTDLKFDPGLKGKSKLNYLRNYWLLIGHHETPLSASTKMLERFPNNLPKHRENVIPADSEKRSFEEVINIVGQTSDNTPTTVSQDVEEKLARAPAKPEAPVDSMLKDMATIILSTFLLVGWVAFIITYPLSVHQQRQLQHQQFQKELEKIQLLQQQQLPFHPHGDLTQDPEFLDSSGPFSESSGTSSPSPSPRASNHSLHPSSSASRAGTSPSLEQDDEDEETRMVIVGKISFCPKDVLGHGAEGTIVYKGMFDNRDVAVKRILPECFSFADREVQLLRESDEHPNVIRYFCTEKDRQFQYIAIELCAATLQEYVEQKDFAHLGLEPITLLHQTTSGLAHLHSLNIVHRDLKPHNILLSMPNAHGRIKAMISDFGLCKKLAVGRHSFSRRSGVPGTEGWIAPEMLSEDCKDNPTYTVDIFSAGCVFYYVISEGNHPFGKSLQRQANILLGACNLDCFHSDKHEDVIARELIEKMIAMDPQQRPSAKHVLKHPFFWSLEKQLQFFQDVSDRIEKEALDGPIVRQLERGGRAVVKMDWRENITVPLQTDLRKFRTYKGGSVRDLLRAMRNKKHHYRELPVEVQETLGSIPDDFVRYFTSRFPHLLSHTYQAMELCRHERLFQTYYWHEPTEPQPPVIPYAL
# Method: as §1
# (§3) cDNA synthesis and quantitative RT-PCR. Total RNA was extracted using an ISOLATE II RNA (Bioline, 52073) and cDNA synthesis was performed with the ISCRIPT™ kit (Bio-Rad, 170-8891). TaqMan Probes were obtained from Life Technologies (GAPDH: Mm99999915_g1; IL-6: Mm00446190_m1; pro-IL-1β: Mm00434228_m1; TNFα: Mm00443258_m1). Primers for IRE1 detection were GCACGUGAAUUGAUAGAGA (SEQ ID NO: 10) and UCUCUAUCAAUUCACGUGC (SEQ ID NO: 11). Primers for the detection of XBP1 were previously published (Lipson et al., 2008). RT-PCR was performed as described previously (Gaultier et al., 2009).
# (§4) cDNA synthesis and quantitative PCR. Total RNA was extracted using an ISOLATE II RNA kit (Bioline, 52073) and cDNA synthesis was performed with the SENSIFAST™ cDNA synthesis kit (Bioline, BIO-65054). TaqMan Probes were obtained from Thermo Fisher (GAPDH: Mm99999915_g1; IL-6: Mm00446190_m1; pro-IL-1β: Mm00434228_m1; IL10: Mm004396). Primers for the detection of XBP1, IL-8, and actin were previously published (Vandesompele et al., 2002; Kumar & Valdivia, 2008; Girard et al., 2009). qPCR was performed as described previously (Gaultier et al., 2008).
# [3] = system: IRE1 transcript; assay: qPCR for IRE1 expression in BMDM; type: cell-based, mouse; conditions: S1R KO BMDM, 5 μM 4μ8C
# Method: as §3
# [4] = system: BMDM; assay: qPCR for pro-inflammatory cytokine expression in LPS-treated BMDM; type: cell-based, mouse; conditions: 100 ng/mL LPS + 5 μM 4μ8C, 6 hours
# Method: as §3, §4
# [5] = system: primary lung fibroblasts; assay: IL-6 ELISA on supernatant of LPS-stimulated primary lung fibroblasts; type: cell-based, mouse; conditions: 1 μg/mL LPS + 5 μM 4μ8C, 6 hours
# Method: as §1, §2
# Tissue culture conditions and Reagents. HEK293 mTLR4/MD2/CD14 (Invivogen, 293-mtlr4md2cd14), primary lung fibroblasts, and BMDM were isolated and maintained as described (Zhang et al., 2008; Seluanov et al., 2010). […]
# [6] = cited from earlier work
# [7] = system: transgenic (3×Tg-AD) mice; conditions: cited from earlier work
# [8] = pre-clinical tests; cited from earlier work
smiles,measurement,setting,value
"Cc1cc(=O)oc2c(C=O)c(O)ccc12 [4μ8C, 7-Hydroxy-4-methyl-2-oxo-2H-1-benzopyran-8-carboxaldehyde]",Difference in LPS-induced IL-6 secretion between WT and S1R KO BMDM,[1],rescued IL-6 secretion in S1R KO cells to the levels observed in control BMDM
same,LPS induced XBP1 splicing,[2],completely abolished
same,IRE1 transcript levels,[3],restores IRE1 transcript levels to those observed in WT BMDM
same,Potentiated cytokine expression in S1R KO BMDM relative to WT (qPCR),[4],inhibits potentiation of cytokine expression in S1R KO BMDM; also recorded: reversed IL-6 expression in KO cells to the amount observed in WT BMDM
same,IL-1β expression (qPCR),[4]; WT and S1R KO BMDM,decreases
same,IL-6 expression (qPCR),[4]; WT and S1R KO BMDM,decreases
same,IL-6 / cytokine secretion by lung fibroblasts upon LPS stimulation,[5],marked decrease of cytokine secretion
same,Half-life in vivo,[6],short half-life
"CC1SC2(CCN(C)CC2)CN1C(=O)CCc1c[nH]c2ccccc12 (stereo not shown) [ANAVEX® 3-71, 1-(2,8-dimethyl-1-thia-3,8-diazaspiro(4.5)dec-3-yl)-3-(1H-indol-3-yl)propan-1-one]","Effect on major Alzheimer's hallmarks (cognitive deficits, amyloid and tau pathologies)",[7],highly effective in very small doses
"CN(C)CC1COC(c2ccccc2)(c2ccccc2)C1.Cl (stereo not shown) [ANAVEX® 1-41, tetrahydro-N,N-dimethyl-5,5-di phenyl-3-furanmethanamine hydrochloride]",Neuroprotective benefits,[8],significant neuroprotective benefits
